Data: patent EP4790066A1, “GLP-1R/GIPR/GCGR TRIPLE AGONIST ANALOGUE AND USE THEREOF” (Shenzhen Bay Laboratory, priority 2023, dated 2025)
*1 amine or outer side, *2 acyl side, *3 side chain or, on linkers, in order; H or OH if unused. Where a SMILES comes first, the peptide text is derived from it. Bridges are numbered along the chain shown (N, C = ends). [ ]: non-standard residue; d: D form. X1 = O=C(O)CCCCCCCCCCCCCCCCCCC(=O)N[C@@H](CCCCNC(=O)COCCOCCNC(=O)COCCOCCNC(=O)CCC(=O)N(CCNC(=O)C[*:1])CCNC(=O)C[*:2])C(=O)O; Phe(2-F) = N[C@@H](Cc1ccccc1F)C(=O)O; αMeL = CC(C)C[C@](C)(N)C(=O)O; αMeK = C[C@](N)(CCCCN)C(=O)O; αMeS = C[C@](N)(CO)C(=O)O; Aib = CC(C)(N)C(=O)O

Tests used:
[1] = target: T1, GLP-1R (Homo sapiens, UniProt P43220); assay: CreLuc method (CRE-luciferase reporter), HEK293/pGM-CREB-L-Luc/GLP-1R pool; type: cell-based; settings: 6 h incubation, read-out: EC50 (pM) for each receptor GLP-1R
T1 construct: expressed in transfected cells
T1 sequence (P43220 24-463, species assumed): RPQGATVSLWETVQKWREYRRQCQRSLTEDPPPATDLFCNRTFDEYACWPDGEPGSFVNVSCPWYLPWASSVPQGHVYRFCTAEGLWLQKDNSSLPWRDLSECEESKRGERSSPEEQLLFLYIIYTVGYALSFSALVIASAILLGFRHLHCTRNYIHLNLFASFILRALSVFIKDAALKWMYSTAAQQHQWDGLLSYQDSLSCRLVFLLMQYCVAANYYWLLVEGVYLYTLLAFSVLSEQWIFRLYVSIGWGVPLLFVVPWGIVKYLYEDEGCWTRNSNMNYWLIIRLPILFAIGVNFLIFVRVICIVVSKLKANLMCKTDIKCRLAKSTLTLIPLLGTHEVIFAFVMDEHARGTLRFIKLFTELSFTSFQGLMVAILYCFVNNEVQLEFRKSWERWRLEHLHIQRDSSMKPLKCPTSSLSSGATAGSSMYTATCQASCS
Method in brief: (§1)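 Stable HEK293 pools co-expressing each receptor with a CRE-luciferase reporter were plated at 20,000 cells/well in freestyle medium and treated with compound dilution series for 6 h at 37 °C. Luminescence was read with ONE-GLO to derive EC50.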

[2] = target: T2, GCGR (Homo sapiens, UniProt P47871); assay: cAMP method (HTRF cAMP detection kit), HEK293/pGM-CREB-L-Luc/GCG pool; type: cell-based; settings: read-out: EC50 (pM) for each receptor GCGR
T2 construct: expressed in transfected cells
T2 sequence (P47871 26-477, species assumed): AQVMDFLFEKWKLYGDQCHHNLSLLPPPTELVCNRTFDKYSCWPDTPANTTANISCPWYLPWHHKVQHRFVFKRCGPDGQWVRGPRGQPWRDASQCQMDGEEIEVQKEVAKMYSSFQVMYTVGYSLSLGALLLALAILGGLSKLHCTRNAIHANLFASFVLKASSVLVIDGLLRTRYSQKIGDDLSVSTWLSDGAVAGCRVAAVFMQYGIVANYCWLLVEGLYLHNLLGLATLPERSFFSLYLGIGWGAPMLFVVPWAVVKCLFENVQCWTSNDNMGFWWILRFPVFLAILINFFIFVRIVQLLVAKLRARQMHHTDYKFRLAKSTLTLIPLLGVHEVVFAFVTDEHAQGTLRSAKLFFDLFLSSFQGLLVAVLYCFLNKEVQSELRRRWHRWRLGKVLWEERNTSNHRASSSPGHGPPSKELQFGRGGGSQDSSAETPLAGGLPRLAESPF
Protocol: (§2) 2. Insulinotropic analogues can bind to target receptors on the cell membrane, activate the receptors, and induce release. The activity of the test substance can be determined using the HTRF method with a cAMP detection kit. Therefore, the cAMP method can be used to detect the target peptide derivatives (or polypeptide derivatives, i.e., TG1-TG86) prepared in Example 1 and Example 2. […] The test cell line was selected, treated with cAMP-specific trypsin for digestion. 3 mL of serum-free DMEM culture medium was added, and the cells were pipetted, resuspended, and counted. 5 µL of IBMX (prepared with serum-free DMEM medium, 0.5 mM) and test cells (5 µL/7500 cells/well) were added in a 384-well plate sequentially. The plate was incubated at 37°C under 5% CO2 for 30 min, followed by the addition of cAMP-d2 (5 µL, 1x) and Anti-cAMP-Cryptate (5 µL, 1x). The mixture was kept at room temperature for 1 h, after which the HTRF value was measured using a chemiluminescent microplate reader, and the determination result was recorded. […] Table 4: EC50 values for target peptide derivatives

[3] = target: T3, GIPR (Homo sapiens, UniProt P48546); assay: CreLuc method (CRE-luciferase reporter), HEK293/pGM-CREB-L-Luc/GIPR pool; type: cell-based; settings: 6 h incubation, read-out: EC50 (pM) for each receptor GIPR
T3 construct: expressed in transfected cells
T3 sequence (P48546 22-466): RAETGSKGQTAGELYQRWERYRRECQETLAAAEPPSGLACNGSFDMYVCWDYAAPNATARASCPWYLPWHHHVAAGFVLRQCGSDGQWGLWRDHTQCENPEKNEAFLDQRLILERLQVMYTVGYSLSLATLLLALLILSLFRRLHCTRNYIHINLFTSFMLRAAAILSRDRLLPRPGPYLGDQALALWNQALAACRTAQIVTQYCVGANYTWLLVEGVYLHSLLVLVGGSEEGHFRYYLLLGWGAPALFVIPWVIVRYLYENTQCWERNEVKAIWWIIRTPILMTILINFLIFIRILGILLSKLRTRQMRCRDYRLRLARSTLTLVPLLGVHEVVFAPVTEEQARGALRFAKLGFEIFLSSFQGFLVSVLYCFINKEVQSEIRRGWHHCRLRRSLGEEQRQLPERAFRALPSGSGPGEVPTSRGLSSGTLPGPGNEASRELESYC
Method in brief: as §1

[4] = target: T2, GCGR; assay: CreLuc method (CRE-luciferase reporter), 293HEK/pGM-CREB-L-Luc/GCGR pool; type: cell-based; settings: 6 h incubation, read-out: EC50 (pM) for each receptor GCGR
Method in brief: as §1

[5] = target: T1, GLP-1R; assay: cAMP method (HTRF cAMP detection kit), HEK293/pGM-CREB-L-Luc/GLP-1 pool; type: cell-based; settings: read-out: EC50 (pM) for each receptor GLP-1R
Protocol: as §2

[6] = target: T3, GIPR; assay: cAMP method (HTRF cAMP detection kit), HEK293/pGM-CREB-L-Luc/GIP pool; type: cell-based; settings: read-out: EC50 (pM) for each receptor GIPR
Protocol: as §2

[7] = in vivo; set-up: species or system male SD rats; settings: rat
Protocol: The pharmacokinetic behavior of target peptide derivatives (or polypeptide derivatives) prepared in Example 1 and Example 2, i.e., TG1-TG94 in rodents was tested. The specific steps are as follows:
The target peptide derivatives (TG1-TG94) to be tested were administered to male SD rats via subcutaneous injection (SC, 3 mg/kg; drug vehicle: PBS, concentration: 1.5 mg/mL; administration volume: 2 mL) and intravenous injection (IV, 1 mg/kg; drug vehicle: PBS, concentration: 0.5 mg/mL; administration volume: 2 mL) as a single dose, respectively. Whole blood samples were collected from the jugular vein or other appropriate vein at the following time points after administration: for SC, 15 min, 30 min, 1 h, 2 h, 4 h, 6 h, 8 h, 24 h, 48 h, 72 h, 96 h, 120 h, and 168 h; for IV, 5 min, 15 min, 30 min, 1 h, 2 h, 4 h, 8 h, 24 h, 48 h, 72 h, 96 h, 120 h, and 168 h. 0.2 mL of blood was collected and transferred into a labeled EDTA-K2 anticoagulant tube. The tube was gently inverted to ensure thorough mixing of the anticoagulant (EDTA-K2) with the blood and immediately placed on wet ice. Plasma separation was performed as soon as possible by centrifugation under the following conditions: 4°C, 6800xg, for 6 min. The plasma samples were stored in a refrigerator at no higher than -20°C and used for analysis when needed.
Under the condition of yellow light in an ice-water bath, except for blank samples, 300 µL of precipitant containing an internal standard was added to a 96-well plate containing 20 µL of standard curve sample, quality control sample, or unknown sample; 300 µL of acetonitrile was added to the blank sample. The mixture was vortexed, mixed well, and then centrifuged. 150 µL of the supernatant after centrifugation was transferred to a new 96-well plate, and 150 µL of ultrapure water was added and mixed well. The above samples were subjected to quantitative analysis using LC-MS analysis with XB-C18 (2.1 * 100 mm, 3 µm) chromatography for gradient elution. The mobile phases used were: mobile phase A = 0.1% formic acid-water; mobile phase B = acetonitrile. Phoenix WinNonlin software was used to calculate the pharmacokinetic parameters. […] Table 5A: Pharmacokinetic parameters of target peptide derivatives

Structure (SMILES): CC[C@H](C)[C@@H]1NC(=O)[C@H](Cc2ccccc2)NC(=O)[C@@H](NC(=O)C(C)(C)NC(=O)[C@H](CCC(N)=O)NC(=O)[C@H](C)NC(=O)[C@H](CCCCNC(C)=O)NC(=O)[C@H](CCCCN)NC(=O)[C@H](CC(=O)O)NC(=O)[C@H](CC(C)C)NC(=O)[C@](C)(CC(C)C)NC(=O)[C@@H](NC(=O)[C@H](CO)NC(=O)[C@H](Cc2ccc(O)cc2)NC(=O)[C@H](CC(=O)O)NC(=O)[C@H](CO)NC(=O)[C@@H](NC(=O)[C@H](Cc2ccccc2)NC(=O)[C@@H](NC(=O)CNC(=O)[C@H](CCC(N)=O)NC(=O)C(C)(C)NC(=O)[C@@H](N)Cc2ccc(O)cc2)[C@@H](C)O)[C@@H](C)O)[C@@H](C)CC)CSCC(=O)NCCN(C(=O)CCC(=O)NCCOCCOCC(=O)NCCOCCOCC(=O)NCCCC[C@H](NC(=O)CCCCCCCCCCCCCCCCCCC(=O)O)C(=O)O)CCNC(=O)CSC[C@@H](C(=O)NCC(=O)NCC(=O)N2CCC[C@H]2C(=O)N[C@@H](CO)C(=O)N[C@@H](CO)C(=O)NCC(=O)N[C@@H](C)C(=O)N2CCC[C@H]2C(=O)N2CCC[C@H]2C(=O)N2CCC[C@H]2C(=O)N[C@@H](CO)C(N)=O)NC(=O)[C@H](CC(C)C)NC(=O)[C@H](CC(C)C)NC(=O)[C@H](Cc2c[nH]c3ccccc23)NC(=O)[C@H](CCC(=O)O)NC1=O [TG28]
- EC50 [1]: 60.2 pM
- EC50 [2]: 83.7 pM
- EC50 [3]: 30 pM
- EC50 [4]: 482 pM
- EC50 [5]: 2.2 pM

Structure (SMILES): CC[C@H](C)[C@H](NC(=O)[C@H](Cc1ccccc1)NC(=O)[C@H](C)NC(=O)[C@@H]1CSCC(=O)NCCN(C(=O)CCC(=O)NCCOCCOCC(=O)NCCOCCOCC(=O)NCCCC[C@H](NC(=O)CCCCCCCCCCCCCCCCCCC(=O)O)C(=O)O)CCNC(=O)CSC[C@H](NC(=O)[C@](C)(CCCCN)NC(=O)[C@H](CC(=O)O)NC(=O)[C@H](CC(C)C)NC(=O)[C@](C)(CC(C)C)NC(=O)[C@@H](NC(=O)[C@](C)(CO)NC(=O)[C@H](Cc2ccc(O)cc2)NC(=O)[C@H](CC(=O)O)NC(=O)[C@H](CO)NC(=O)[C@@H](NC(=O)[C@H](Cc2ccccc2F)NC(=O)[C@@H](NC(=O)CNC(=O)[C@H](CCC(N)=O)NC(=O)C(C)(C)NC(=O)[C@@H](N)Cc2ccc(O)cc2)[C@@H](C)O)[C@@H](C)O)[C@@H](C)CC)C(=O)N[C@@H](C)C(=O)N[C@@H](CCC(N)=O)C(=O)N1)C(=O)N[C@@H](CCC(=O)O)C(=O)N[C@@H](Cc1ccc(O)cc1)C(=O)N[C@@H](CC(C)C)C(=O)N[C@@H](CC(C)C)C(=O)N[C@@H](C)C(=O)NCC(=O)NCC(=O)N1CCC[C@H]1C(=O)N[C@@H](CO)C(=O)N[C@@H](CO)C(=O)NCC(=O)N[C@@H](C)C(=O)N1CCC[C@H]1C(=O)N1CCC[C@H]1C(=O)N1CCC[C@H]1C(=O)N[C@@H](CO)C(N)=O [TG62] (H-Y[Aib]QGT[Phe(2-F)]TSDY[αMeS]I[αMeL]LD[αMeK]CAQCAFIEYLLAGGPSSGAPPPS-NH2; linker 17-20 via X1)
- EC50 [1]: 371 pM
- EC50 [2]: 62.2 pM
- EC50 [3]: 27.9 pM
- EC50 [6]: 6 pM
- EC50 [4]: 783 pM

Structure (SMILES): CC[C@H](C)[C@@H]1NC(=O)[C@H](Cc2ccccc2)NC(=O)[C@@H](NC(=O)C(C)(C)NC(=O)[C@H](CCC(N)=O)NC(=O)[C@H](C)NC(=O)[C@H](CCCCNC(C)=O)NC(=O)[C@H](CCCCN)NC(=O)[C@H](CC(=O)O)NC(=O)[C@H](CC(C)C)NC(=O)[C@](C)(CC(C)C)NC(=O)[C@@H](NC(=O)[C@H](CO)NC(=O)[C@H](Cc2ccc(O)cc2)NC(=O)[C@H](CC(=O)O)NC(=O)[C@H](CO)NC(=O)[C@@H](NC(=O)[C@H](Cc2ccccc2F)NC(=O)[C@@H](NC(=O)CNC(=O)[C@H](CCC(N)=O)NC(=O)C(C)(C)NC(=O)[C@@H](N)Cc2ccc(O)cc2)[C@@H](C)O)[C@@H](C)O)[C@@H](C)CC)CSCC(=O)NCCN(C(=O)CCC(=O)NCCOCCOCC(=O)NCCOCCOCC(=O)NCCCC[C@H](NC(=O)CCCCCCCCCCCCCCCCCCC(=O)O)C(=O)O)CCNC(=O)CSC[C@@H](C(=O)NCC(=O)NCC(=O)N2CCC[C@H]2C(=O)N[C@@H](CO)C(=O)N[C@@H](CO)C(=O)NCC(=O)N[C@@H](C)C(=O)N2CCC[C@H]2C(=O)N2CCC[C@H]2C(=O)N2CCC[C@H]2C(=O)N[C@@H](CO)C(N)=O)NC(=O)[C@H](CC(C)C)NC(=O)[C@H](CC(C)C)NC(=O)[C@H](Cc2ccc(O)cc2)NC(=O)[C@H](CCC(=O)O)NC1=O [TG40]
- EC50 [1]: 33.9 pM
- EC50 [2]: 2.1 pM
- EC50 [3]: 12.5 pM
- EC50 [6]: 3.1 pM
- AUC(0-inf) ([7]; male, SD, iv, 1 mg/kg): 165 µg·h/mL
- AUC(0-t) ([7]; male, SD, iv, 1 mg/kg): 164 µg·h/mL
- MRT ([7]; male, SD, iv, 1 mg/kg): 22.1 h
- Vd ([7]; male, SD, iv, 1 mg/kg): 0.134 L/kg
- clearance ([7]; male, SD, iv, 1 mg/kg): 0.101 mL/min/kg
- half-life ([7]; male, SD, iv, 1 mg/kg): 15 h
- bioavailability ([7]; male, SD, sc): 50%
- AUC(0-inf) ([7]; male, SD, sc, 3 mg/kg): 248 µg·h/mL
- AUC(0-t) ([7]; male, SD, sc, 3 mg/kg): 247 µg·h/mL
- CL/F ([7]; male, SD, sc, 3 mg/kg): 0.205 mL/min/kg
- Cmax ([7]; male, SD, sc, 3 mg/kg): 4770 ng/mL
- MRT ([7]; male, SD, sc, 3 mg/kg): 36.9 h
- Tmax ([7]; male, SD, sc, 3 mg/kg): 24 h
- half-life ([7]; male, SD, sc, 3 mg/kg): 13.1 h
- AUC0-t /AUC0-inf ([7]; iv, 1 mg/kg): 0.997
- Kel ([7]; iv, 1 mg/kg): 0.0462 h⁻¹
- AUC0-t /AUC0-inf ([7]; sc, 3 mg/kg): 0.996
- Vz/F ([7]; sc, 3 mg/kg): 0.232 L/kg
- EC50 [4]: 92.9 pM
